# From patent publication US20240165135A1, “COMPOSITIONS AND METHODS FOR THE TREATMENT OF CANCER” (The State of Israel, Ministry of Agriculture & Rural …, priority 2021, published 2024)
# Marks after values point to notes of the source that are not given here.
# Legend:
# Format in all cases: cell-based, Human
# A172 cells [1] = assay: Scratch-wound assay, A172 cell migration; conditions: 36 hours; F4 20, F4-SM 11.5, F5 20, F5-SM 11.5, Doxo 0.5 μg/mL
# Experimental: Scratch-wound assay—A172 cells were seeded in a 96-well plate at a density of 2×10^4 per well in 100 μL of complete medium. Following 24 hours, cells in each well were scratched perpendicularly across the center of the well with a 200 μL pipette tip to produce a cell-free area for investigating the ability of the cells to migrate and close the gap under different treatments. Immediately following scratching, 100 μL of treatment solution was added. Photos were taken by a CARL ZEISS inverted microscope coupled with a camera at 0, 14, 20, and 36 hours following scratching, and the gap area was measured using ImageJ (version 1.53a). The scratch area, indicated by cells migrated into the scratch was calculated as percent of scratch area at time x from time 0: […]
# U87 GBM cells = assay: XTT cell viability assay on U87; conditions: 48 hours; Doxorubicin up to 50 μg/mL
# Experimental: Cell cultures—Human glioblastoma A172 (ATCC®CRL-1620™) was cultured in DMEM (01-055-1A, Biological Industries, Israel) and U87MG (U87; ATCC®HTB-14™) in EMEM (01-058-1A; Biological Industries, Israel). Both media were supplemented with 10% fetal bovine serum (FBS, 04-127-1A, Biological Industries, Israel), 1% Pen-Strep, 1% L-Glutamine and 0.02% plasmocin (i.e., complete medium). Cells were incubated at 37° C. in a humidified atmosphere containing 5% CO2—95% air. Serum free media (SFM) was composed of DMEM/F12 (01-170-1A; Biological Industries, Israel), including all the supplements above except for FBS. Neurosphere media for A172 was composed of SFM with 2% B-27; Neurosphere media for U87 was serum-free EMEM without B27. For Glioblastoma stem cells (GSCs) cultures all human materials were used in accordance with the policies of the Henry Ford Hospital Institutional Review Board. Generation of GSCs from fresh GBM specimens and their characterization have been recently described. […]
# Cell viability assays—Cells were seeded in 96-well plates at density of 2×10^4 per well (100 μL/well) in SFM (for A172) or complete medium (for U87) and were incubated at 37° C. overnight to allow attachment. […] Absorbance was recorded by a Synergy H1 hybrid reader photometer (BioTek) at 490 nm with 650 nm of reference wavelength. […]
# A172 cells [2] = assay: Cell cycle analysis, PI staining, FACS, A172; conditions: 24 hours; SM 10 μg/mL, Doxo 0.5 μg/mL; control 10.2%
# Experimental: Cell cycle analysis—A172 cells were seeded in 6-well TC plate at a concentration of 4×10^5 cells in 2 mL of SFM per well. Following 24 hours incubation, cells were treated with indicated treatments in complete medium for 24 hours. Methanol and doxorubicin were used as negative and positive controls, respectively. Cells were harvested and centrifuged for 5 minutes at 1600 rpm. Cell pellets were washed once with 1 mL of PBS and fixed with 70% cold ethanol overnight at −20° C. The fixed cells were washed twice with 1 mL of PBS and stained with 250 μL of PI solution (50 μg/mL) containing RNase A (100 μg/mL) for 30 minutes in dark conditions. 250 μL PBS was added to each tube and the cells were analyzed using FACS.
# U87 cells = assay: 3D models (hydrogel) of U87 cells: colonies and Alamar Blue viability; conditions: U87 from 3D structures, 48 hours; Doxorubicin 2, F4 20, F4-SM 12.5, F5 16.5, F5-SM 10 μg/ml; control 98.52
# Experimental: 3D models—Hydrogels (AGFCH) included Sigma-Aldrich products and were prepared using alginate (W201502; Sigma-Aldrich, USA) 22.5 mg/mL, gelatin (G9764; Bio-Basic, USA) 45 mg/mL, fibrinogen (F38791; Sigma-Aldrich, USA) 50 mg/mL, collagen (C9791; Sigma-Aldrich, USA) 2.2 mg/mL and hyaluronic acid (O8185; Sigma-Aldrich, USA) 2 mg/mL in PBS-glycerol solvent. The gel (AGFCH) was mixed with U87 cells at a concentration of 2×10^6 cells per 400 μL gel. The solutions were mixed gently and transferred as 25 μL of gel solution to a 24-well plate. 3D models were cross-linked using CaCl2 (A610050; Bio-Basic, USA) and thrombin (SRP6557; Sigma-Aldrich, USA) for 5 minutes, following the 3D structure was washed with PBS and then immersed in 1 mL of EMEM complete medium. Cells in the 3D structures were allowed to grow for 2 days and then the indicated treatments were administered for 8 days (treatments were repeated every 2 days). Structures were stained using EasyProbe Hoechst, as described above. To assess cell viability, the 3D structure was digested using 200 μL of 0.05M sodium citrate (C3434; Sigma-Aldrich, USA) and 0.05M EDTA (03-052-1A; Biological Industries, Israel) solution for 5 minutes. […] Percentage of colony in the different treatments was calculated out of average number of colonies in the control.
smiles,measurement,setting,value
COc1cccc2c1C(=O)c1c(O)c3c(c(O)c1C2=O)C[C@@](O)(C(=O)CO)C[C@@H]3O[C@H]1C[C@H](N)[C@H](O)[C@H](C)O1 [Doxorubicin],inhibition of cell migration in comparison to the vehicle control,A172 cells [1],28.8%
same,activity on the U87 cell line,U87 GBM cells,only moderately active on this cell line
same,percentage of cells in the G2-M phase,A172 cells [2],11.6%
same,Mean (% of Live cells),U87 cells,37.22 ± 3.08^c %
